Measured values taken from US12534456B2, “Heterocyclyl pyridines as novel fungicides” (Bayer Aktiengesellschaft, priority 2020, dated 2026).

Assay: physchem
Type: physicochemical
Description: Measurement of Log P values as provided herein was performed according to EEC directive 79/831 Annex V.A8 by HPLC (High Performance Liquid Chromatography) on reversed phase columns with the following methods: • ^[a]
If more than one Log P value is available within the same method, all the values are given and separated by “+”.
Lambda-max-values were determined using UV-spectra from 200 nm to 400 nm and the peak values of the chromatographic signals
With `Cc1ccc(CC2CON=C(c3cc(C#N)ncc3Oc3cccc(C(F)(F)F)c3)N2)cc1` (racemic) [Compound I-057] the LogP was 4.12^[a].
For `C=Cc1cc(C2=NOCC(Cc3ccc(C)cc3)N2)c(Oc2cccc(C(F)(F)F)c2)cn1` (racemic) [Compound I-059], the LogP was 4.19^[a].
For `Cc1ccc(CC2CON=C(c3cc(C#C[Si](C)(C)C)ncc3Oc3cccc(C(F)(F)F)c3)N2)cc1` (racemic) [Compound I-060], the LogP was 5.53^[a].
In the case of `CC(=O)c1cc(C2=NOCC(Cc3ccc(C)cc3)N2)c(Oc2cccc(C(F)(F)F)c2)cn1` (racemic) [Compound I-061], the LogP is reported as 4.07^[a].
For `Cc1ccc(CC2CON=C(c3c(Oc4cccc(C(F)(F)F)c4)cnc(Cl)c3F)N2)c(C)c1` (racemic) [Compound I-062], the LogP was 4.66^[a].
For `Cc1ccc(CC2CON=C(c3cc(Cl)ncc3Oc3ccccc3)N2)c(C)c1` (racemic) [Compound I-063], the LogP was 4.17^[a].
In the case of `CSc1cccc(Oc2cnc(Cl)cc2C2=NOCC(Cc3ccc(C)cc3C)N2)c1` (racemic) [Compound I-064], the LogP is reported as 4.66^[a].
In the case of `Cc1ccc(CC2CON=C(c3cc(Cl)ncc3Oc3cccc(OC(F)F)c3)N2)c(C)c1` (racemic) [Compound I-065], the LogP is reported as 4.38^[a].
For `Cc1ccc(CC2CON=C(c3cc(Cl)ncc3Oc3cccc(C4CC4)c3F)N2)c(Cl)c1` (racemic) [Compound I-066], the LogP was 5.04^[a].
For `COc1cc(C2=NOCC(Cc3ccc(C)cc3Cl)N2)c(Oc2cccc(Cl)c2F)cn1` (racemic) [Compound I-067], the LogP was 4.51^[a].
With `FC(F)(F)c1cccc(Oc2cnc(Cl)cc2C2=NOCC(Cc3csc(C(F)(F)F)c3)N2)c1` (racemic) [Compound I-068] the LogP was 4.40^[a].
In the case of `Cc1ccc(CC2CON=C(c3cc(C)ncc3Oc3cccc(Cl)c3F)N2)c(Cl)c1` (racemic) [Compound I-069], the LogP is reported as 4.07^[a].
In the case of `FC(F)(F)c1cccc(Oc2cnc(Cl)cc2C2=NOCC(c3ccccc3)N2)c1` (racemic) [Compound I-070], the LogP is reported as 3.64^[a].
For `Fc1cccc(Oc2cnc(Cl)cc2C2=NOCC(Cc3ccc(Cl)cc3Cl)N2)c1F` (racemic) [Compound I-071], the LogP was 4.40^[a].
With `FC(F)(F)c1cc(Oc2cnc(Cl)cc2C2=NOCC(Cc3ccc(Cl)cc3Cl)N2)cs1` (racemic) [Compound I-072] the LogP was 4.75^[a].
For `C#Cc1ccc(CC2CON=C(c3cc(C#C)ncc3Oc3cccc(C(F)(F)F)c3)N2)c(C)c1` (racemic) [Compound I-074], the LogP was 3.75^[a].
With `C#Cc1cccc(Oc2cnc(Cl)cc2C2=NOCC(Cc3ccc(C)cc3C)N2)c1` (racemic) [Compound I-075] the LogP was 4.33^[a].
In the case of `Cc1ccc(CC2CON=C(c3cc(Cl)ncc3Oc3ccc(C)c(Cl)c3)N2)c(C)c1` (racemic) [Compound I-076], the LogP is reported as 4.97^[a].
With `COC(=O)Cc1cccc(Oc2cnc(Cl)cc2C2=NOCC(Cc3ccc(C)cc3C)N2)c1` (racemic) [Compound I-078] the LogP was 4.08^[a].
For `Cc1ccc(CC2CON=C(c3cc(Cl)ncc3Oc3cccc(Br)c3F)N2)c(Cl)c1` (racemic) [Compound I-079], the LogP was 4.70^[a].
For `N#Cc1ccc(C2CON=C(c3cc(Cl)ncc3Oc3cccc(C(F)(F)F)c3)N2)cc1` (racemic) [Compound I-080], the LogP was 3.30^[a].
In the case of `Cc1ccc(CC2CN=C(c3cc(Cl)ncc3Oc3cccc(C(F)(F)F)c3)N2)c(C)c1` (racemic) [Compound I-081], the LogP is reported as 2.64^[a].
For `Cc1ccc(CC2CON=C(c3cc(Cl)nc(F)c3Oc3cccc(C(F)(F)F)c3)N2)c(C)c1` (racemic) [Compound I-082], the LogP was 4.97^[a].
With `Cc1cc(Cl)ccc1CC1CON=C(c2cc(Cl)ncc2Oc2cccc(Cl)c2F)N1` (racemic) [Compound I-083] the LogP was 4.59^[a].
With `Cc1ccc(CC2CNN=C(c3cc(Cl)ncc3Oc3cccc(C(F)(F)F)c3)N2)c(C)c1` (racemic) [Compound I-084] the LogP was 2.86^[a].
For `Cc1ccc(CC2CON=C(c3cc(Cl)ncc3Oc3cccc(C=O)c3)N2)c(C)c1` (racemic) [Compound I-085], the LogP was 3.64^[a].
For `Cc1ccc(CC2CON=C(c3cc(Cl)ncc3Oc3ccc4ccccc4c3)N2)c(C)c1` (racemic) [Compound I-086], the LogP was 4.77^[a].
With `Cc1ccc(CC2CON=C(c3cc(Cl)ncc3Oc3cccc(Cl)c3F)N2)c(Cl)c1` (racemic) [Compound I-087] the LogP was 4.66^[a].
For `Cc1ccc(CC2CON=C(c3cc(Cl)ncc3Oc3cccc(-c4ccccn4)c3)N2)c(C)c1` (racemic) [Compound I-089], the LogP was 3.87^[a].
In the case of `FC(F)(F)Sc1cccc(Oc2cnc(Cl)cc2C2=NOCC(Cc3ccc(Cl)cc3Cl)N2)c1` (racemic) [Compound I-090], the LogP is reported as 5.16^[a].
For `C#Cc1cc(C2=NOCC(Cc3ccc(Br)cc3C)N2)c(Oc2cccc(C(F)(F)F)c2)cn1` (racemic) [Compound I-091], the LogP was 4.19^[a].
For `CCc1cccc(Oc2cnc(Cl)cc2C2=NOCC(Cc3ccc(C)cc3C)N2)c1` (racemic) [Compound I-092], the LogP was 5.04^[a].
In the case of `Cc1ccc(CC2CON=C(c3cc(Cl)ncc3Oc3cnc4ccccc4c3)N2)c(C)c1` (racemic) [Compound I-093], the LogP is reported as 3.65^[a].
With `Cc1ccc(CC2CN(C=O)N=C(c3cc(Cl)ncc3Oc3cccc(C(F)(F)F)c3)N2)c(C)c1` (racemic) [Compound I-094] the LogP was 4.49^[a].
With `Cc1ccc(CC2CON=C(c3cc(Cl)ncc3Oc3cccc(S(C)(=O)=O)c3)N2)c(C)c1` (racemic) [Compound I-095] the LogP was 3.25^[a].
In the case of `Cn1cc(C2CON=C(c3cc(Cl)ncc3Oc3cccc(C(F)(F)F)c3)N2)c2ccccc21` (racemic) [Compound I-096], the LogP is reported as 4.01^[a].
For `C=Cc1cccc(Oc2cnc(Cl)cc2C2=NOCC(Cc3ccc(Cl)cc3Cl)N2)c1` (racemic) [Compound I-099], the LogP was 4.85^[a].
With `Cc1ccc(CC2CON=C(c3cc(Cl)ncc3Oc3ccc4c(c3)CCC4)N2)c(C)c1` (racemic) [Compound I-100] the LogP was 5.16^[a].
For `Cc1ccc(CC2CON=C(c3cc(Cl)ncc3Oc3cccc(C4CCC4)c3)N2)c(C)c1` (racemic) [Compound I-101], the LogP was 5.50^[a].
With `Fc1c(Cl)cccc1Oc1cnc(Cl)cc1C1=NOCC(Cc2ccc(Cl)cc2Cl)N1` (racemic) [Compound I-102] the LogP was 4.71^[a].
With `Cc1ccc(CC2CON=C(c3cc(Cl)ncc3Oc3cccc(Cl)c3)N2)c(Cl)c1` (racemic) [Compound I-103] the LogP was 4.66^[a].
For `Cc1ccc(CC2CON=C(c3cc(Cl)ncc3Oc3cccc(Br)c3)N2)c(C)c1` (racemic) [Compound I-104], the LogP was 4.74^[a].
With `FC(F)(F)c1cccc(Oc2cnc(Cl)cc2C2=NOCC(Cc3ccc(C(F)(F)F)cc3Cl)N2)c1` (racemic) [Compound I-105] the LogP was 4.84^[a].
In the case of `FC(F)(F)c1cccc(Oc2cnc(Cl)cc2C2=NCC(Cc3ccc(Cl)cc3)N2)c1` (racemic) [Compound I-106], the LogP is reported as 2.45^[a].
With `FC(F)(F)c1cccc(Oc2cnc(Cl)cc2C2=NOCCC(c3ccc(Cl)cc3)N2)c1` (racemic) [Compound I-108] the LogP was 2.12^[a].
With `Cc1ccc(C2(C)NC(c3cc(Cl)ncc3Oc3cccc(C(F)(F)F)c3)=NO2)cc1` (racemic) [Compound I-109] the LogP was 4.59^[a].
With `Cc1ccc(CC2CON=C(c3cc(Cl)ncc3Oc3cccc(C(F)(F)F)c3)N2)cc1` (racemic) [Compound I-110] the LogP was 4.31^[a].
In the case of `Cc1ccc(CC2CON=C(c3cc(Cl)ncc3Oc3ccc4c(c3)CCO4)N2)c(C)c1` (racemic) [Compound I-111], the LogP is reported as 4.23^[a].
With `CCN(C)c1cc(C2=NOCC(Cc3ccc(C)cc3Cl)N2)c(Oc2cccc(Cl)c2F)cn1` (racemic) [Compound I-112] the LogP was 4.59^[a].
For `Cc1ccc(CC2CON=C(c3cc(Cl)ncc3Oc3cccc(C4COC4)c3)N2)c(C)c1` (racemic) [Compound I-113], the LogP was 3.68^[a].
In the case of `Cc1ccc(CC2CON=C(c3cc(Cl)ncc3Oc3ccc4c(c3)OC(F)(F)O4)N2)c(C)c1` (racemic) [Compound I-114], the LogP is reported as 4.65^[a].
In the case of `Fc1c(Br)cccc1Oc1cnc(Cl)cc1C1=NOCC(Cc2ccc(Cl)cc2Cl)N1` (racemic) [Compound I-115], the LogP is reported as 4.69^[a].
With `Cc1ccc(CC2CON=C(c3cc(Cl)ncc3Oc3cccc4c3CCC4)N2)c(C)c1` (racemic) [Compound I-116] the LogP was 5.14^[a].
With `CC(=O)c1cccc(Oc2cnc(Cl)cc2C2=NOCC(Cc3ccc(C)cc3C)N2)c1` (racemic) [Compound I-117] the LogP was 3.70^[a].
In the case of `Cc1ccc(Cl)c(CC2CON=C(c3cc(Cl)ncc3Oc3cccc(Cl)c3F)N2)c1` (racemic) [Compound I-118], the LogP is reported as 4.52^[a].
For `Cc1ccc(CC2CON=C(c3cc(Cl)ncc3Oc3ccc4ccsc4c3)N2)c(C)c1` (racemic) [Compound I-119], the LogP was 4.59^[a].
With `Cc1ccc(CC2CON=C(c3cc(Cl)ncc3Oc3ccc(OC(F)(F)F)cc3)N2)c(C)c1` (racemic) [Compound I-120] the LogP was 4.76^[a].
For `CSc1c(Cl)ncc(Oc2cccc(C(F)(F)F)c2)c1C1=NOCC(Cc2ccc(C)cc2C)N1` (racemic) [Compound I-121], the LogP was 4.67^[a].
With `Cc1ccc(CC2CON=C(c3c(Oc4cccc(C(F)(F)F)c4)cnc(Cl)c3C)N2)c(C)c1` (racemic) [Compound I-124] the LogP was 4.55^[a].
In the case of `FC(F)(F)c1cncc(Oc2cnc(Cl)cc2C2=NOCC(Cc3ccc(Cl)cc3Cl)N2)c1` (racemic) [Compound I-125], the LogP is reported as 3.71^[a].
For `COCCOc1cccc(Oc2cnc(Cl)cc2C2=NOCC(Cc3ccc(C)cc3C)N2)c1` (racemic) [Compound I-126], the LogP was 4.15^[a].
For `Cc1ccc(CC2CON=C(c3cc(Cl)nc(Cl)c3Oc3cccc(C(F)(F)F)c3)N2)c(C)c1` (racemic) [Compound I-127], the LogP was 5.08^[a].
With `FC(F)(F)c1cccc(Oc2cnc(Cl)cc2C2=NOCC(Cc3ccc(Cl)cc3Cl)N2)n1` (racemic) [Compound I-128] the LogP was 4.44^[a].
With `COCCOc1c(Cl)ncc(Oc2cccc(C(F)(F)F)c2)c1C1=NOCC(Cc2ccc(C)cc2C)N1` (racemic) [Compound I-129] the LogP was 4.51^[a].
